Patent US11951100B2, “Formulations of RBP4 inhibitors and methods of use” (Belite Bio, LLC, priority 2019, dated 2024)
In brackets after ≈: the same amount, converted by molar mass. Several values for one entry are separate records, joined by “and”; a condition that tells them apart may be missing. Equal entries are not always repeated. Where two headings read alike, the source gives them in different places.

Experiments:
[1] = Equilibrium solubility by HPLC, Form C, ambient temperature; assay type: physicochemical; conditions: for solubility: thermodynamic from solid
Experimental: […] (as a part of feasibility assessment of liquid dosage form in formulation development and dissolution method development), a number of […] […] The equilibrated suspensions were isolated by centrifuge and the filtrates were injected into HPLC to determine equilibrium solubility of the API in each solvent system.

Caco-2 monolayers = test: Permeability through Caco-2 monolayers; assay type: in vitro ADME
Experimental: Several biopharmaceutically relevant parameters of the API (Compound 1) were obtained for the API. […] Based on these two biopharmaceutical parameters, this compound is possibly a BCS Class II. Solubility enhancement is critical for bioavailability of the API for dosing. Therefore, to overcome the limitation from solubility, several experiments were conducted to assess various solubility enhancement approaches utilized in formulation development

[2] = MDSC of spray dried solid dispersions; assay type: physicochemical; conditions: n = 3
Experimental: Samples of the solid dispersions containing Compound 1 were analyzed by Differential Scanning Calorimetry using a TA Discovery DSC2500 with RCS90 chiller according to standard instrument procedures provided by manufacturer. Parameters used for the analysis are shown below in Table 9. Three replicates of the experiment were run for each dispersion.

[3] = system: Abcd4/rdh8 double knockout mice; test: Abcd4/rdh8 double knockout mouse model of macular degeneration; assay type: in vivo
Excerpt: FIG. 2 is a graph of bisretinoid A2E (pmol in the eye) and RBP4 (serum) levels for ABCA4−/−RDH8−/− mice either untreated, treated with vehicle, or treated with Compound 1.
FIG. 3 is a graph of outer nuclear layer (ONL) thickness (μm) as a function of distance (μm) from the optic nerve (ONH). ONL is the cell layer consisting of photoreceptor cell bodies (rods and cones). Dry AMD or STGD is often associated with thinning of the ONL and the loss of photoreceptor cells, indicating macular degeneration.
Abcd4/rdh8 double knockout mice were either untreated or treated with Compound 1. Wild type C57BL/6J mice were also used as a normal control. […] (FIG. 2). Diseases such as dry AMD or Stargardt are associated with thinning of the outer nuclear layer (ONL) of the eye and the loss of photoreceptor cells, indicating macular degeneration.

[4] = treated vs untreated Abcd4/rdh8 double knockout mice

Compound: CC(=O)N1CCc2c(C(=O)N3CCC(c4ccc(F)c(F)c4C(F)(F)F)CC3)n[nH]c2C1 [Compound 1, 1-(3-(4-(3,4-difluoro-2-(trifluoromethyl)phenyl)piperidine-1-carbonyl)-1,4,5,7-tetrahydro-6H-pyrazolo[3,4-c]pyridin-6-yl)ethan-1-one]
- solubility ([1]; Canola Oil, oil or lipid, Canola Oil, read-out: Solubility by HPLC): 31 µg/mL (≈ 67.9 µM)
- solubility ([1]; Capmul MCM, EP, oil or lipid, Capmul MCM, EP, read-out: Solubility by HPLC): 3900 µg/mL (≈ 8540 µM)
- solubility ([1]; Capmul MCM, NF, oil or lipid, Capmul MCM, NF, read-out: Solubility by HPLC): 4400 µg/mL (≈ 9640 µM)
- solubility ([1]; Captex 300, EP/NF, oil or lipid, Captex 300, EP/NF, read-out: Solubility by HPLC): 64 µg/mL (≈ 140 µM)
- solubility ([1]; Captex 355, EP/NF, oil or lipid, Captex 355, EP/NF, read-out: Solubility by HPLC): 49 µg/mL (≈ 107 µM)
- solubility ([1]; Castor Oil, oil or lipid, Castor Oil, read-out: Solubility by HPLC): 990 µg/mL (≈ 2170 µM)
- solubility ([1]; Corn Oil, oil or lipid, Corn Oil, read-out: Solubility by HPLC): 31 µg/mL (≈ 67.9 µM)
- solubility ([1]; FaSSIF, pH 4.96, fassif, FaSSIF, Final pH: 4.96, read-out: Solubility by HPLC): 39 µg/mL (≈ 85.4 µM)
- solubility ([1]; FaSSIF, pH 4.99, fassif, FaSSIF, Final pH: 4.99, read-out: Solubility by HPLC): 47 µg/mL (≈ 103 µM)
- solubility ([1]; FaSSIF, pH 6.77, fassif, FaSSIF, Final pH: 6.77, read-out: Solubility by HPLC): 5.1 µg/mL (≈ 11.2 µM)
- solubility ([1]; FaSSIF, pH 6.78, fassif, FaSSIF, Final pH: 6.78, read-out: Solubility by HPLC): 3.2 µg/mL (≈ 7.01 µM)
- solubility ([1]; Gelucire 44/14 1 mg/mL (500× cmc), aqueous with cosolvent or surfactant or cyclodextrin, Gelucire 44/14, 1 mg/mL (500× cmc), read-out: Solubility by HPLC): 0.8 µg/mL (≈ 1.75 µM)
- solubility ([1]; Kolliphor HS-15, 35 °C, organic solvent or mixture, Kolliphor HS-15, Stirred at 35° C., read-out: Solubility by HPLC): 2800 µg/mL (≈ 6130 µM)
- solubility ([1]; Kolliphor P188 0.4 mM (3.2× cmc), aqueous with cosolvent or surfactant or cyclodextrin, Kolliphor P188, 0.4 mM (3.2× cmc), read-out: Solubility by HPLC): 1.6 µg/mL (≈ 3.51 µM)
- solubility ([1]; Kolliphor P188 4 mM (32× cmc), aqueous with cosolvent or surfactant or cyclodextrin, Kolliphor P188, 4 mM (32× cmc), read-out: Solubility by HPLC): 3.1 µg/mL (≈ 6.79 µM)
- solubility ([1]; Labrafil M1944CS, oil or lipid, Labrafil M1944CS, read-out: Solubility by HPLC): 280 µg/mL (≈ 613 µM)
- solubility ([1]; Labrasol, oil or lipid, Labrasol, read-out: Solubility by HPLC): 1700 µg/mL (≈ 3720 µM)
- solubility ([1]; Lecithin 61 mg/mL (100× cmc), aqueous with cosolvent or surfactant or cyclodextrin, Lecithin, 61 mg/mL (100× cmc), read-out: Solubility by HPLC): 53 µg/mL (≈ 116 µM)
- solubility ([1]; Miglyol 810, oil or lipid, Miglyol 810, read-out: Solubility by HPLC): 53 µg/mL (≈ 116 µM)
- solubility ([1]; Miglyol 812, oil or lipid, Miglyol 812, read-out: Solubility by HPLC): 52 µg/mL (≈ 114 µM)
- solubility ([1]; Oleic Acid, oil or lipid, Oleic Acid, read-out: Solubility by HPLC): 390 µg/mL (≈ 854 µM)
- solubility ([1]; PEG 400, organic solvent or mixture, PEG 400, read-out: Solubility by HPLC): 2000 µg/mL (≈ 4380 µM)
- solubility ([1]; Peceol, oil or lipid, Peceol, read-out: Solubility by HPLC): 1300 µg/mL (≈ 2850 µM)
- solubility ([1]; Plurol Oleique CC 497, oil or lipid, Plurol Oleique CC 497, read-out: Solubility by HPLC): 1200 µg/mL (≈ 2630 µM)
- solubility ([1]; Sodium Lauryl Sulfate 8.2 mM (cmc), aqueous with cosolvent or surfactant or cyclodextrin, Sodium Lauryl Sulfate, 8.2 mM (cmc), read-out: Solubility by HPLC): 150 µg/mL (≈ 329 µM)
- solubility ([1]; Sodium Lauryl Sulfate 41 mM (5× cmc), aqueous with cosolvent or surfactant or cyclodextrin, Sodium Lauryl Sulfate, 41 mM (5× cmc), read-out: Solubility by HPLC): 1600 µg/mL (≈ 3510 µM)
- solubility ([1]; Sodium Lauryl Sulfate 82 mM (10× cmc), aqueous with cosolvent or surfactant or cyclodextrin, Sodium Lauryl Sulfate, 82 mM (10× cmc), read-out: Solubility by HPLC): 2400 µg/mL (≈ 5260 µM)
- Solubility by HPLC ([1]; Sodium Lauryl Sulfate, 0.82M (100× cmc)): 17000 µg/mL and 19000 µg/mL
- solubility ([1]; Soybean Oil, oil or lipid, Soybean Oil, read-out: Solubility by HPLC): 30 µg/mL (≈ 65.7 µM)
- solubility ([1]; Transcutol HP, organic solvent or mixture, Transcutol HP, read-out: Solubility by HPLC): 4700 µg/mL (≈ 10300 µM)
- solubility ([1]; Triacetic, organic solvent or mixture, Triacetic, read-out: Solubility by HPLC): 430 µg/mL (≈ 942 µM)
- solubility ([1]; Tween 80, 1.2 mM (100× CMC), aqueous with cosolvent or surfactant or cyclodextrin, Tween 80, 1.2 mM (100× cmc), read-out: Solubility by HPLC): 560 µg/mL (≈ 1230 µM)
- solubility ([1]; Vitamin E TPGS 0.2 wt % (10× cmc), aqueous with cosolvent or surfactant or cyclodextrin, Vitamin E TPGS, 0.2 wt % (10× cmc), read-out: Solubility by HPLC): 20 µg/mL (≈ 43.8 µM)
- solubility ([1]; Vitamin E TPGS 2 wt % (100× cmc), aqueous with cosolvent or surfactant or cyclodextrin, Vitamin E TPGS, 2 wt % (100× cmc), read-out: Solubility by HPLC): 40 µg/mL (≈ 87.6 µM)
- solubility ([1]; Water, pH 8.99, water, Water, Final pH: 8.99, read-out: Solubility by HPLC): 1 µg/mL (≈ 2.19 µM)
- solubility ([1]; ethanol, organic solvent or mixture, Ethanol, read-out: Solubility by HPLC): 3100 µg/mL (≈ 6790 µM)
- solubility ([1]; organic solvent or mixture, EtOH, PEG 400, Propylene glycol, Capmul MCM NF, Kolliphor EL, Capmul MCM EP, Plurol Oleique CC 497, Peceol, Labrasol, SLS at 5× and 10×CMC, Transcutol HP, read-out: solubility of the API): 1000 to 5000 µg/mL (≈ 2190 to 11000 µM)
- solubility ([1]; pH 1.0 buffer, pH 1, simulated gastric fluid, pH 1.0 buffer, Final pH: 0.89, read-out: Solubility by HPLC): 1.2 µg/mL (≈ 2.63 µM)
- solubility ([1]; pH 4.5 buffer, pH 4.5, aqueous buffer, pH 4.5 buffer, Final pH: 4.80, read-out: Solubility by HPLC): 1.1 µg/mL (≈ 2.41 µM)
- solubility ([1]; pH 6.8 buffer, pH 6.8, aqueous buffer, pH 6.8 buffer, Final pH: 6.50, read-out: Solubility by HPLC): 0.8 µg/mL (≈ 1.75 µM)
- solubility ([1]; propylene glycol, organic solvent or mixture, Propylene Glycol, read-out: Solubility by HPLC): 2600 µg/mL (≈ 5700 µM)
- solubility ([1]; sodium lauryl sulfate solution, 0.82 M (100× CMC), aqueous with cosolvent or surfactant or cyclodextrin, Sodium Lauryl Sulfate, 0.82M (100× cmc), read-out: Solubility by HPLC): > 10000 µg/mL
- solubility ([1]; sulfobutylether β-cyclodextrin, 40 wt %, aqueous with cosolvent or surfactant or cyclodextrin, Sulfobutylether β-CD, 40 wt %, read-out: Solubility by HPLC): 750 µg/mL (≈ 1640 µM)
- efflux (Caco-2 monolayers; apical-to-basolateral and basolateral-to-apical): no significant efflux
- absorption potential classification (Caco-2 monolayers; apical-to-basolateral and basolateral-to-apical (Absorption Systems)): high
- BCS classification (Caco-2 monolayers; based on Log D7.4 and Caco-2 data, possibly): BCS Class II
- Tg [2]: 93.4 °C
- Tg Onset [2]: 89.4 °C
- reduction in bisretinoid accumulation ([3]; bisretinoid A2E in the eye, ABCA4−/−RDH8−/− mice treated with Compound 1, p=0.003, unpaired t-test): 80%
- outer nuclear layer (ONL) thickness ([3]; diseased group treated with Compound 1 vs diseased group): preserved
- levels of A2E in the retina [3, 4]: significantly lower
- levels of RBP4 in serum [3, 4]: lower
